How the values were obtained:
PDE4B2 [1] = molecular target: T1, PDE4B2 (Homo sapiens, UniProt Q07343); assay: PDE4B2 enzyme experiment (AMP-glo, cAMP substrate); type: biochemical; settings: for inhibition at 0.001 µM: read-out: PDE4B2 Enzyme Inhibition% @1 nM; for inhibition at 0.01 µM: read-out: PDE4B2 Enzyme Inhibition% @10 nM; for inhibition at 0.1 µM: read-out: PDE4B2 Enzyme Inhibition% @100 nM
T1 construct: expressed in transfected cells; host or cells: Flp-In-293 (Flpin-293-PDE4B2 [sic])

PDE4B2 [2] = molecular target: T1, PDE4B2; assay: PDE4B2 cell experiment (cAMP, Eu-cAMP tracer / Ulight-anti-cAMP); type: cell-based; settings: Flpin-293-PDE4B2 cells; for inhibition at 0.001 µM / Cell Inhibition% @1 nM: 1 nM; for inhibition at 0.01 µM / Cell Inhibition% @10 nM: 10 nM; for inhibition at 0.1 µM / Cell Inhibition% @100 nM: 100 nM; for IC50: Foskolin

T1 sequence (Q07343 1-564 isoform Q07343-2): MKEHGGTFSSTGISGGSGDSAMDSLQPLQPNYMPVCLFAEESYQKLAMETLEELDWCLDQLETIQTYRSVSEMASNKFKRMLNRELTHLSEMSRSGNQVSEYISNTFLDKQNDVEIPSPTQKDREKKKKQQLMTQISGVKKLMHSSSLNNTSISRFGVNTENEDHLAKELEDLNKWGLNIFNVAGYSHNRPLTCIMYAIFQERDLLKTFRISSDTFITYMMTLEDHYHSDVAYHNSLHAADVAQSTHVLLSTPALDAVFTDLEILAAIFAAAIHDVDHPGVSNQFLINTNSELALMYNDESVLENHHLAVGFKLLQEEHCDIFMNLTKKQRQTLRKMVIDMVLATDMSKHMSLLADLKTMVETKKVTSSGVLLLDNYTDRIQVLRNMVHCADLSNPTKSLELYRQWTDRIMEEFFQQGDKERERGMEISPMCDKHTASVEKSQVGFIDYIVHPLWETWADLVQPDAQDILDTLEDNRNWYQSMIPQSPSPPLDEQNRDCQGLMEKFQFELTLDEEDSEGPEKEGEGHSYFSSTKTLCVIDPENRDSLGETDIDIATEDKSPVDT

| Structure (SMILES) | Cell Inhibition% @1 nM (PDE4B2 [2]) | Cell Inhibition% @10 nM (PDE4B2 [2]) | Cell Inhibition% @100 nM (PDE4B2 [2]) | further results |
| --- | --- | --- | --- | --- |
| [O-][S@+]1CCc2nc(N3CCc4scc(Br)c4C3)nc(NC3(CO)CCC3)c21 [Compound 57, (R)-2-(3-bromo-6,7-dihydrothieno[3,2-c]pyridin-5(4H)-yl)-4-((1-(hydroxymethyl)cyclobutyl)amino)-6,7-dihydrothieno[2,2-d]pyrimidine 5-oxide] | – | – | – | inhibition at 0.001 µM (PDE4B2 [1]): 38.9%; inhibition at 0.01 µM (PDE4B2 [1]): 90.5%; inhibition at 0.1 µM (PDE4B2 [1]): 100%; inhibition at 0.001 µM (PDE4B2 [2]): 11.8%; inhibition at 0.01 µM (PDE4B2 [2]): 14.9%; inhibition at 0.1 µM (PDE4B2 [2]): 71.6% |
| [O-][S+]1CCc2nc(N3CC[C@@H]4c5ccc(C(F)(F)F)cc5OC[C@H]4C3)nc(NC3(CO)CCC3)c21 (stereo partly drawn) [Compound 111] | 8.07% | 22.21% | 81.06% | – |
| [O-][n+]1cc2c(c3ccc(Cl)cc31)CCN(c1nc3c(c(NC4(CO)CCC4)n1)[S+]([O-])CC3)C2 (stereo not drawn) [Compound 106] | 0.41% | 21.18% | 67.52% | – |
| Cn1cnc2c1CN(c1nc3c(c(NC4(CO)CCC4)n1)[S@+]([O-])CC3)CC2 [Compound 38, (R)-4-((1-(hydroxymethyl)cyclobutyl)amino)-2-(3-methyl-3,4,6,7-tetrahydro-5H-imidazo[4,5-c]pyridin-5-yl)-6,7-dihydrothieno[3,2-d]pyrimidine-5-oxide] | – | – | – | inhibition at 0.01 µM (PDE4B2 [1]): 35.4%; inhibition at 0.1 µM (PDE4B2 [1]): 84.7%; inhibition at 0.01 µM (PDE4B2 [2]): 20.3%; inhibition at 0.1 µM (PDE4B2 [2]): 38.2% |
| [O-][S+]1CCc2nc(N3CCc4cc(F)ccc4C3)nc(NC3(CO)CCC3)c21 (stereo not drawn) [Compound 23] | – | – | – | IC50 (PDE4B2 [1]): 2.84 nM; IC50 (PDE4B2 [2]): 29.1 nM |
| [O-][S+]1CCc2nc(N3CCc4c(nn5cccc(Cl)c45)C3)nc(NC3(CO)CCC3)c21 (stereo not drawn) [Compound 10] | – | – | – | IC50 (PDE4B2 [1]): 2.31 nM; IC50 (PDE4B2 [2]): 73.8 nM |
| [O-][S+]1CCc2nc(N3CCc4ccc(Cl)cc4CC3)nc(NC3(CO)CCC3)c21 (stereo not drawn) [Compound 34] | – | 14% | 62% | IC50 (PDE4B2 [1]): 1.96 nM |
| [O-][S@+]1CCc2nc(N3CC[C@H]4c5ccc(Cl)cc5OC[C@@H]4C3)nc(NC3(CO)CCC3)c21 [Compound 13, (R)-2-((4aS,10bR)-8-chloro-1,4a,5,10b-tetrahydro-2H-chromeno[3,4-c]pyridin-3(4H)-yl)-4-((1-(hydroxymethyl)cyclobutyl)amino)-6,7-dihydrothieno[3,2-d]pyrimidine 5-oxide] | – | – | – | IC50 (PDE4B2 [1]): 6.39 nM; IC50 (PDE4B2 [2]): 562 nM |
| [O-][S+]1CCc2nc(N3CCc4nc(Br)sc4C3)nc(NC3(CO)CCC3)c21 (stereo not drawn) [Compound 63] | – | 31.1% | 76.6% | IC50 (PDE4B2 [1]): 4.21 nM |
| [O-][S@+]1CCc2nc(N3CCc4cc5c(cc4C3)OC(F)(F)O5)nc(NC3(CO)CCC3)c21 [Compound 48, (R)-2-(2,2-difluoro-7,8-dihydro-[1,3]dioxolo[4,5-g]isoquinolin-6(5H)-yl)-4-((1-(hydroxymethyl)cyclobutyl)amino)-6,7-dihydrothieno[3,2-d]pyrimidine 5-oxide] | – | – | – | inhibition at 0.01 µM (PDE4B2 [1]): 87%; inhibition at 0.1 µM (PDE4B2 [1]): 101%; inhibition at 0.01 µM (PDE4B2 [2]): 25.7%; inhibition at 0.1 µM (PDE4B2 [2]): 76.2% |
| [O-][S@+]1CCc2nc(N3CC[C@@H]4c5ccncc5OC[C@H]4C3)nc(NC3(CO)CCC3)c21 [Compound 113, (R)-4-((1-(hydroxymethyl)cyclobutyl)amino)-2-((6aR,10aS)-6a,9,10,10-tetrahydro-6H-pyrano[2,3-c:5,4-c']dipyridin-8(7H)-yl)-6,7-dihydrothieno[3,2-d]pyrimidine 5-oxide] | – | – | – | inhibition at 0.001 µM (PDE4B2 [2]): 5.01%; inhibition at 0.01 µM (PDE4B2 [2]): 22.8%; inhibition at 0.1 µM (PDE4B2 [2]): 71.9% |
| Cc1ccc2c(c1)OC[C@H]1CN(c3nc4c(c(NC5(CO)CCC5)n3)[S+]([O-])CC4)CC[C@H]21 (stereo partly drawn) [Compound 112] | 12.30% | 54.08% | 99.44% | – |
| [O-][S+]1CCc2nc(N3CCc4cnc(Cl)cc4C3)nc(NC3(CO)CCC3)c21 (stereo not drawn) [Compound 79] | 1.99% | 11.19% | 59.37% | IC50 (PDE4B2 [1]): 9.19 nM |
| COc1ccc2c(c1)CCN(c1nc3c(c(NC4(CO)CCC4)n1)[S+]([O-])CC3)CC2 (stereo not drawn) [Compound 47] | – | – | – | PDE4B2 Enzyme Inhibition% @10 nM (PDE4B2 [1]; 10 nM): 98.41%; PDE4B2 Enzyme Inhibition% @100 nM (PDE4B2 [1]; 100 nM): 100.06%; IC50 (PDE4B2 [2]): 6.28 nM |
| [O-][S+]1CCc2nc(N3CCC4=C(COc5ccccc54)C3)nc(NC3(CO)CCC3)c21 (stereo not drawn) [Compound 97] | 1.66% | 17.36% | 86.54% | – |
| [O-][S+]1CCc2nc(N3CCc4cc(F)c(F)cc4C3)nc(NC3(CO)CCC3)c21 (stereo not drawn) [Compound 95] | -4.2% | 6.8% | 66.7% | – |
| Nc1nc2cc(Cl)ccc2c2c1CN(c1nc3c(c(NC4(CO)CCC4)n1)[S+]([O-])CC3)CC2 (stereo not drawn) [Compound 102] | -0.08% | 35.86% | 95.46% | – |
| [O-][S+]1CCc2nc(N3CCc4cccc(Cl)c4C3)nc(NC3(CO)CCC3)c21 (stereo not drawn) [Compound 21] | – | 18.76% | 79.24% | IC50 (PDE4B2 [1]): 2.11 nM |
| [O-][S+]1CCc2nc(N3CCc4cc(N5CC(F)(F)C5)ccc4C3)nc(NC3(CO)CCC3)c21 (stereo not drawn) [Compound 88] | 3.67% | 28.76% | 93.47% | – |
| [O-][S@+]1CCc2nc(N3CCc4cc(N5CCCC5)cnc4C3)nc(NC3(CO)CCC3)c21 [Compound 184, (R)-4-((1-(hydroxymethyl)cyclobutyl)amino)-2-(3-(pyrrolidin-1-yl)-5,8-dihydro-1,7-naphthyridin-7(6H)-yl)-6,7-dihydrothieno[3,2-d]pyrimidine 5-oxide] | – | – | – | inhibition at 0.001 µM (PDE4B2 [2]): 36.5%; inhibition at 0.01 µM (PDE4B2 [2]): 94.3%; inhibition at 0.1 µM (PDE4B2 [2]): 100% |
| [O-][S@@+]1CCc2nc(N3CCc4nn5cc(Cl)cnc5c4C3)nc(NC3(CO)CCC3)c21 [Compound 3] | – | – | – | IC50 (PDE4B2 [1]): 926 nM |
| [O-][S@+]1CCc2nc(N3CC[C@H]4c5ncc(Cl)cc5OC[C@@H]4C3)nc(NC3(CO)CCC3)c21 [Compound 114, (R)-2-((6aS,10aR)-3-chloro-6a,9,10,10-tetrahydro-6H-pyrano[3,2-b:5,4-c']dipyridin-8(7H)-yl)-4-((1-(hydroxymethyl)cyclobutyl)amino)-6,7-dihydrothieno[3,2-d]pyrimidine 5-oxide] | – | – | – | inhibition at 0.001 µM (PDE4B2 [2]): -1.54%; inhibition at 0.01 µM (PDE4B2 [2]): 8.74%; inhibition at 0.1 µM (PDE4B2 [2]): 54.5% |
| N#Cc1ccc2c(c1)CN(c1nc3c(c(NC4(CO)CCC4)n1)[S@+]([O-])CC3)C2 [Compound 60, (R)-2-(4-((1-(hydroxymethyl)cyclobutyl)amino)-5-oxido-6,7-dihydrothieno[3,2-d]pyrimidin-2-yl)isoindoline-5-carbonitrile] | – | – | – | inhibition at 0.01 µM (PDE4B2 [1]): 65.8%; inhibition at 0.1 µM (PDE4B2 [1]): 99.3%; inhibition at 0.01 µM (PDE4B2 [2]): 21.2%; inhibition at 0.1 µM (PDE4B2 [2]): 65.9% |
| [O-][S+]1CCc2nc(N3CC[C@@H]4c5ccc(Br)cc5OC[C@H]4C3)nc(NC3(CO)CCC3)c21 (stereo partly drawn) [Compound 115] | 7.72% | 39.69% | 97.73% | – |
| COc1ccc2c(c1)OC[C@H]1CN(c3nc4c(c(NC5(CO)CCC5)n3)[S+]([O-])CC4)CC[C@H]21 (stereo partly drawn) [Compound 110] | 18.98% | 76.13% | 100.03% | – |
| [O-][S+]1CCc2nc(N3CCc4scnc4C3)nc(NC3(CO)CCC3)c21 (stereo not drawn) [Compound 17] | – | – | – | IC50 (PDE4B2 [1]): 471 nM |
| [O-][S@+]1CCc2nc(N3CCc4c(Br)csc4C3)nc(NC3(CO)CCC3)c21 [Compound 54, (R)-2-(3-bromo-4,7-dihydrothieno[2,3-c]pyridin-6(5H)-yl)-4-((1-(hydroxymethyl)cyclobutyl)amino)-6,7-dihydrothieno[3,2-d]pyrimidine 5-oxide] | – | – | – | inhibition at 0.001 µM (PDE4B2 [1]): 9.28%; inhibition at 0.01 µM (PDE4B2 [1]): 58.9%; inhibition at 0.1 µM (PDE4B2 [1]): 96.6% |
| [O-][S+]1CCc2nc(N3CC[C@@H]4c5ccc(F)cc5OC[C@H]4C3)nc(NC3(CO)CCC3)c21 (stereo partly drawn) [Compound 109] | 17.70% | 65.40% | 97.85% | – |
| Cn1cc2c(n1)CCN(c1nc3c(c(NC4(CO)CCC4)n1)[S+]([O-])CC3)C2 (stereo not drawn) [Compound 31] | – | – | – | IC50 (PDE4B2 [1]): 7.42 nM |
| [O-][S@+]1CCc2nc(N3CCc4c(ccc5[nH]ncc45)C3)nc(NC3(CO)CCC3)c21 [Compound 118, (R)-4-((1-(hydroxymethyl)cyclobutyl)amino)-2-(3,6,8,9-tetrahydro-7H-pyrazolo[4,3-f]isoquinolin-7-yl)-6,7-dihydrothieno[3,2-d]pyrimidine 5-oxide] | – | – | – | inhibition at 0.001 µM (PDE4B2 [2]): 11.1%; inhibition at 0.01 µM (PDE4B2 [2]): 41.7%; inhibition at 0.1 µM (PDE4B2 [2]): 89% |

Further lines, with some results ahead:

| Cell Inhibition% @1 nM (PDE4B2 [2]) | Cell Inhibition% @10 nM (PDE4B2 [2]) | Cell Inhibition% @100 nM (PDE4B2 [2]) | Structure (SMILES) | further results |
| --- | --- | --- | --- | --- |
| 5.32% | 17.32% | 61.63% | [O-][S+]1CCc2nc(N3CC[C@H]4c5cnc(Cl)cc5OC[C@@H]4C3)nc(NC3(CO)CCC3)c21 (stereo partly drawn) [Compound 117] | – |
| -2.7% | 15.7% | 84.8% | [O-][S+]1CCc2nc(N3CCc4cc(Cl)c(F)cc4C3)nc(NC3(CO)CCC3)c21 (stereo not drawn) [Compound 96] | – |
| 7.53% | 42.53% | 93.48% | Cn1nc(Cl)c2c3c(cnc21)CN(c1nc2c(c(NC4(CO)CCC4)n1)[S+]([O-])CC2)CC3 (stereo not drawn) [Compound 105] | – |
| 32.85% | 96.96% | 100.72% | [O-][S+]1CCc2nc(N3CCc4cc(-c5ncco5)ccc4C3)nc(NC3(CO)CCC3)c21 (stereo not drawn) [Compound 84] | – |
| 2.90% | 31.33% | 89.06% | O=C1CCCN1c1ccc2c(c1)CCN(c1nc3c(c(NC4(CO)CCC4)n1)[S+]([O-])CC3)C2 (stereo not drawn) [Compound 87] | – |
| – | 11.30% | 48.00% | Cn1cc2c(n1)CN(c1nc3c(c(NC4(CO)CCC4)n1)[S+]([O-])CC3)CC2 (stereo not drawn) [Compound 30] | – |

Source: patent EP4678644A1, “SUBSTITUTED DIHYDROTHIENOPYRIMIDINE COMPOUND, PREPARATION METHOD THEREFOR, AND USE THEREOF” (Shanghai Yidi Biotechnology Co., Ltd., priority 2023, dated 2024)
